Target: T1, Sterol O-acyltransferase 1 (Homo sapiens, UniProt P35610)
T1 sequence (P35610 whole entry): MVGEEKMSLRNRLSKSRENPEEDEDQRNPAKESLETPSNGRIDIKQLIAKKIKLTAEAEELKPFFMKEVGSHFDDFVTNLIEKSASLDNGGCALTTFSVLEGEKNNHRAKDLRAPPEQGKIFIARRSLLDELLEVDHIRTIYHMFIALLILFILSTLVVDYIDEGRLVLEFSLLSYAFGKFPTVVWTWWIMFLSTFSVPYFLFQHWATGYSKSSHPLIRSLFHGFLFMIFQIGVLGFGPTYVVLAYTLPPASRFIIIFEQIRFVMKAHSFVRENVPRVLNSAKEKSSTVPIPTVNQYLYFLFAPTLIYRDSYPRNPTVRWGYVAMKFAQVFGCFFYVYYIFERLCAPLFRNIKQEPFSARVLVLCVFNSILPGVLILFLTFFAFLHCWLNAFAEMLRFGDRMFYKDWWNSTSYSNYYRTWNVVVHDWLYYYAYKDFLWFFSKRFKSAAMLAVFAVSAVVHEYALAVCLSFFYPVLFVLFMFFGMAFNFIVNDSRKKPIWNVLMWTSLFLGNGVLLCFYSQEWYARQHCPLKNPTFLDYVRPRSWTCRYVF
Assay: Inhibition of human ACAT1

For `O=C(O)[C@H]1CC[C@H](OC2CCN(c3ccc(-c4nc5cc(C(F)(F)F)ccc5[nH]4)cn3)CC2)CC1`, which IC50 is on record?
Its IC50 is over 10 µM.

Reference: ChEMBL document CHEMBL3351398, “Discovery of a Potent and Selective DGAT1 Inhibitor with a Piperidinyl-oxy-cyclohexanecarboxylic Acid Moiety” (ACS Med Chem Lett, 2014)
